In patent US20240239781A1, “1H-PYRAZOLE DERIVATIVES AS SIGMA LIGANDS” (ACONDICIONAMIENTO TARRASENSE, priority 2021, published 2024) one finds Ki data, which are given here for 28 compounds.

One assay deals with T1, human σ1 receptor (Homo sapiens, UniProt Q99720).
T1 construct: expressed in transfected cells; host or cells: HEK-293
Description: Human σ1 receptor radioligand assay ([3H](+)-pentazocine, transfected HEK-293 membranes). The conditions noted are these: class scale, read-out: Binding σ-1 Ki. The method, then: Transfected HEK-293 membranes (7 μg) were incubated with 5 nM of [^3H](+)-pentazocine in assay buffer containing Tris-HCl 50 mM at pH 8. NBS (non-specific binding) was measured by adding 10 μM haloperidol. The binding of the test compound was measured at either one concentration (% inhibition at 1 or 10 μM) or five different concentrations to determine affinity values (Ki). Plates were incubated at 37° C. for 120 minutes. After the incubation period, the reaction mix was then transferred to MultiScreen HTS, FC plates (Millipore), filtered and plates were washed 3 times with ice-cold 10 mM Tris-HCL (pH7.4). Filters were dried and counted at approximately 40% efficiency in a MicroBeta scintillation counter (Perkin-Elmer) using EcoScint liquid scintillation cocktail.

A further assay deals with T2, human σ2/TMEM97 receptor (Homo sapiens, UniProt Q5BJF2).
T2 construct: expressed in transfected cells; host or cells: HEK-293
As to the kind of experiment: Binding assay to human σ2/TMEM97 receptor ([3H]-DTG, transfected HEK-293 membranes). The conditions noted are these: class scale, read-out: Binding σ-2 Ki. The method, then:
Transfected HEK-293 membranes (15 μg) were incubated with 10 nM [^3H]-1,3-Di-o-tolylguanidine (DTG) in assay buffer containing Tris-HCl 50 mM at pH 8.0. NSB (non-specific binding) was measured by adding 10 μM haloperidol. The binding of the test compound was measured at either one concentration (% inhibition at 1 or 10 μM) or five different concentrations to determine affinity values (Ki). Plates were incubated at 25° C. for 120 minutes. After the incubation period, the reaction mix was transferred to MultiScreen HTS, FC plates (Millipore), filtered and washed 3 times with ice-cold 10 mM Tris-HCL (pH 8.0). Filters were dried and counted at approximately 40% efficiency in a MicroBeta scintillation counter (Perkin-Elmer) using EcoScint liquid scintillation cocktail.

T2 sequence (Q5BJF2 whole entry): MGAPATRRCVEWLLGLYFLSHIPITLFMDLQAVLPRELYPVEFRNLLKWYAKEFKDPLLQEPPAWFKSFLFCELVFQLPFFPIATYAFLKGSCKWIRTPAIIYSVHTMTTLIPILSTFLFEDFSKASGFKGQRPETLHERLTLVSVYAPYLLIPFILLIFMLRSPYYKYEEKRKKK
T1 sequence (Q99720 whole entry): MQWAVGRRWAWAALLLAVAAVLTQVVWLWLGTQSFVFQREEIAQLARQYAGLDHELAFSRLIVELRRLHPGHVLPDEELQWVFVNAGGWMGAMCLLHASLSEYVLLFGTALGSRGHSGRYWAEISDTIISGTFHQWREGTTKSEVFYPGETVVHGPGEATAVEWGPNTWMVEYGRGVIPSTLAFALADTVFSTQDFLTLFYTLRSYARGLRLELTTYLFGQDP

The Ki is a measure of affinity in units of concentration, obtained from inhibition or displacement. As to `Cc1cc(-c2nn(C)c(Cl)c2CN2CCC(CNCCC(C)(C)C)C2)no1` (centres unmarked) [Example 1, N-((1-((5-Chloro-1-methyl-3-(5-methylisoxazol-3-yl)-1H-pyrazol-4-yl)methyl)pyrrolidin-3-yl)methyl)-3,3-dimethylbutan-1-amine], the values for the inhibitory constant (Ki) on human σ1 receptor and on human σ2/TMEM97 receptor were 100 to 500 nM and above 1000 nM, respectively.

Regarding `Cc1cc(-c2nn(C)c(Cl)c2CN2CCCCC(NCCC(C)C)C2)no1` (centres unmarked) [Example 2, 1-((5-Chloro-1-methyl-3-(5-methylisoxazol-3-yl)-1H-pyrazol-4-yl)methyl)-N-isopentylazepan-3-amine], the Ki at human σ1 receptor was 500 to 1000 nM; at human σ2/TMEM97 receptor, above 1000 nM.

`Cc1cc(-c2nn(C)c(Cl)c2CN2CCCCC(NCCc3ccccc3)C2)no1` (centres unmarked) [Example 3, 1-((5-Chloro-1-methyl-3-(5-methylisoxazol-3-yl)-1H-pyrazol-4-yl)methyl)-N-phenethylazepan-3-amine]: the figures for the inhibition constant (Ki) on human σ1 receptor and on human σ2/TMEM97 receptor were 500 to 1000 nM and above 1000 nM, respectively.

`Cc1cc(-c2nn(C)c(Cl)c2CN2CCCCC(NCC3CCOCC3)C2)no1` (centres unmarked) [Example 4, 1-((5-Chloro-1-methyl-3-(5-methylisoxazol-3-yl)-1H-pyrazol-4-yl)methyl)-N-((tetrahydro-2H-pyran-4-yl)methyl)azepan-3-amine]: the inhibition constant Ki is above 1000 nM at human σ1 receptor and 500 to 1000 nM on human σ2/TMEM97 receptor.

As to `Cc1cc(-c2nn(C)c(Cl)c2CN2CCC[C@@H](NCCC(C)C)C2)no1` [Example 5, (R)-1-((5-Chloro-1-methyl-3-(5-methylisoxazol-3-yl)-1H-pyrazol-4-yl)methyl)-N-isopentylpiperidin-3-amine], the values for the inhibition constant (Ki) at human σ1 receptor and at human σ2/TMEM97 receptor were 500 to 1000 nM and 100 to 500 nM, respectively.

On to `Cc1cc(-c2nn(C)c(Cl)c2CN2CCC[C@H](NCCC(C)C)C2)no1` [Example 6, (S)-1-((5-Chloro-1-methyl-3-(5-methylisoxazol-3-yl)-1H-pyrazol-4-yl)methyl)-N-isopentylpiperidin-3-amine], for which the values for the Ki on human σ1 receptor and on human σ2/TMEM97 receptor were 100 to 500 nM and above 1000 nM, respectively.

`Cc1cc(-c2nn(C)c(Cl)c2CN2CCC[C@H](NCCc3ccccc3)C2)no1` [Example 7, (S)-1-((5-Chloro-1-methyl-3-(5-methylisoxazol-3-yl)-1H-pyrazol-4-yl)methyl)-N-phenethylpiperidin-3-amine]: the inhibition constant (Ki) at human σ1 receptor is 100 to 500 nM; on human σ2/TMEM97 receptor, above 1000 nM.

As for `Cc1cc(-c2nn(C)c(Cl)c2CN2CCCCC(NCCC(C)(C)C)C2)no1` (centres unmarked) [Example 8, 1-((5-Chloro-1-methyl-3-(5-methylisoxazol-3-yl)-1H-pyrazol-4-yl)methyl)-N-(3,3-dimethylbutyl)azepan-3-amine], the Ki at human σ1 receptor was in the range of 100 to 500 nM; on human σ2/TMEM97 receptor, 500 to 1000 nM.

As to `CCCCNC1CCCCN(Cc2c(-c3cc(C)on3)nn(C)c2Cl)C1` (centres unmarked) [Example 9, N-Butyl-1-((5-chloro-1-methyl-3-(5-methylisoxazol-3-yl)-1H-pyrazol-4-yl)methyl)azepan-3-amine], the figures for the Ki on human σ1 receptor and on human σ2/TMEM97 receptor were above 1000 nM and 500 to 1000 nM, respectively.

As for `Cc1cc(-c2nn(C)c(Cl)c2CN2CCCC[C@@H](NCCC(C)C)C2)no1` [Example 10, (R)-1-((5-Chloro-1-methyl-3-(5-methylisoxazol-3-yl)-1H-pyrazol-4-yl)methyl)-N-isopentylazepan-3-amine], the Ki on human σ1 receptor and at human σ2/TMEM97 receptor was 100 to 500 nM in each case.

Regarding `Cc1cc(-c2nn(C)c(Cl)c2CN2CCC(NCCC(C)C)C2)no1` (centres unmarked) [Example 11, 1-((5-Chloro-1-methyl-3-(5-methylisoxazol-3-yl)-1H-pyrazol-4-yl)methyl)-N-isopentylpyrrolidin-3-amine], the inhibition constant (Ki) on human σ1 receptor lay within 500 to 1000 nM; at human σ2/TMEM97 receptor it was 100 to 500 nM.

Regarding `Cc1cc(-c2nn(C)c(Cl)c2CN2CCCC[C@H](NCCC(C)C)C2)no1` [Example 12, (S)-1-((5-Chloro-1-methyl-3-(5-methylisoxazol-3-yl)-1H-pyrazol-4-yl)methyl)-N-isopentylazepan-3-amine], the Ki at human σ1 receptor was 100 to 500 nM; on human σ2/TMEM97 receptor it was above 1000 nM.

As for `Cc1cc(-c2nn(C)c(Cl)c2CN2CCC(NCCC(C)(C)C)C2)no1` (centres unmarked) [Example 13, 1-((5-Chloro-1-methyl-3-(5-methylisoxazol-3-yl)-1H-pyrazol-4-yl)methyl)-N-(3,3-dimethylbutyl)pyrrolidin-3-amine], the inhibitory constant (Ki) at human σ1 receptor and on human σ2/TMEM97 receptor was 100 to 500 nM each time.

Turning to `CCn1nc(-c2cc(C)on2)c(CN2CCCCC(NCCC(C)C)C2)c1Cl` (centres unmarked) [Example 14, 1-((5-Chloro-1-ethyl-3-(5-methylisoxazol-3-yl)-1H-pyrazol-4-yl)methyl)-N-isopentylazepan-3-amine], the inhibition constant Ki is 100 to 500 nM on human σ1 receptor and above 1000 nM on human σ2/TMEM97 receptor.

Take `CC(C)c1cc(-c2nn(C)c(Cl)c2CN2CCCCC(NCCC(C)(C)C)C2)no1` (centres unmarked) [Example 15, 1-((5-Chloro-3-(5-isopropylisoxazol-3-yl)-1-methyl-1H-pyrazol-4-yl)methyl)-N-(3,3-dimethylbutyl)azepan-3-amine]: the inhibition constant Ki on human σ1 receptor is 100 to 500 nM; at human σ2/TMEM97 receptor, above 1000 nM.

Take `Cn1nc(-c2cc(C3CC3)on2)c(CN2CCCCC(NCCC(C)(C)C)C2)c1Cl` (centres unmarked) [Example 16, 1-((5-Chloro-3-(5-cyclopropylisoxazol-3-yl)-1-methyl-1H-pyrazol-4-yl)methyl)-N-(3,3-dimethylbutyl)azepan-3-amine]: the results for the Ki at human σ1 receptor and on human σ2/TMEM97 receptor were 100 to 500 nM and above 1000 nM, respectively.

As to `CC(C)CCNC1CCCCN(Cc2c(-c3cc(C(C)C)on3)nn(C)c2Cl)C1` (centres unmarked) [Example 17, 1-((5-Chloro-3-(5-isopropylisoxazol-3-yl)-1-methyl-1H-pyrazol-4-yl)methyl)-N-isopentylazepan-3-amine], the values for the Ki on human σ1 receptor and on human σ2/TMEM97 receptor were 100 to 500 nM and above 1000 nM, respectively.

Regarding `Cc1cc(-c2nn(-c3ccccc3)c(Cl)c2CN2CCCCC(NCCC(C)C)C2)no1` (centres unmarked) [Example 18, 1-((5-Chloro-3-(5-methylisoxazol-3-yl)-1-phenyl-1H-pyrazol-4-yl)methyl)-N-isopentylazepan-3-amine], the inhibition constant Ki on human σ1 receptor was 100 to 500 nM; at human σ2/TMEM97 receptor it was above 1000 nM.

For `CC(C)CCNC1CCCCN(Cc2c(-c3cc(C4CC4)on3)nn(C)c2Cl)C1` (centres unmarked) [Example 19, 1-((5-Chloro-3-(5-cyclopropylisoxazol-3-yl)-1-methyl-1H-pyrazol-4-yl)methyl)-N-isopentylazepan-3-amine], the Ki at human σ1 receptor is 500 to 1000 nM; on human σ2/TMEM97 receptor, above 1000 nM.

On to `CCc1cc(-c2nn(C)c(Cl)c2CN2CCCCC(NCCC(C)(C)C)C2)no1` (centres unmarked) [Example 20, 1-((5-Chloro-3-(5-ethylisoxazol-3-yl)-1-methyl-1H-pyrazol-4-yl)methyl)-N-(3,3-dimethylbutyl)azepan-3-amine], for which the Ki at human σ1 receptor and on human σ2/TMEM97 receptor was 100 to 500 nM in each case.

Turning to `CCc1cc(-c2nn(C)c(Cl)c2CN2CCCCC(NCCC(C)C)C2)no1` (centres unmarked) [Example 21, 1-((5-Chloro-3-(5-ethylisoxazol-3-yl)-1-methyl-1H-pyrazol-4-yl)methyl)-N-isopentylazepan-3-amine], the inhibition constant (Ki) at human σ1 receptor was in the range of 500 to 1000 nM; at human σ2/TMEM97 receptor, 100 to 500 nM.

With `CCn1nc(-c2cc(C)on2)c(CN2CCCCC(NCCC(C)(C)C)C2)c1Cl` (centres unmarked) [Example 22, 1-((5-Chloro-1-ethyl-3-(5-methylisoxazol-3-yl)-1H-pyrazol-4-yl)methyl)-N-(3,3-dimethylbutyl)azepan-3-amine], the Ki on human σ1 receptor and at human σ2/TMEM97 receptor was 100 to 500 nM in each case.

For `Cc1cc(-c2nn(C)c(Cl)c2CN2CCCC(NCCC(C)(C)C)CC2)no1` (centres unmarked) [Example 23, 1-((5-Chloro-1-methyl-3-(5-methylisoxazol-3-yl)-1H-pyrazol-4-yl)methyl)-N-(3,3-dimethylbutyl)azepan-4-amine], the figures for the inhibition constant Ki on human σ1 receptor and at human σ2/TMEM97 receptor were 100 to 500 nM and below 100 nM, respectively.

With `Cc1cc(-c2nn(C)c(Cl)c2CN2CCCC(NCCC(C)C)CC2)no1` (centres unmarked) [Example 24, 1-((5-Chloro-1-methyl-3-(5-methylisoxazol-3-yl)-1H-pyrazol-4-yl)methyl)-N-isopentylazepan-4-amine], the inhibitory constant (Ki) was above 1000 nM on human σ1 receptor and below 100 nM on human σ2/TMEM97 receptor.

`Cn1nc(-c2ccccn2)c(CN2CCCCC(NCCC(C)(C)C)C2)c1Cl` (centres unmarked) [Example 25, 1-((5-Chloro-1-methyl-3-(pyridin-2-yl)-1H-pyrazol-4-yl)methyl)-N-(3,3-dimethylbutyl)azepan-3-amine]: the Ki on human σ1 receptor was below 100 nM; at human σ2/TMEM97 receptor, above 1000 nM.

As for `CC(C)CCNC1CCCCN(Cc2c(-c3ccccn3)nn(C)c2Cl)C1` (centres unmarked) [Example 26, 1-((5-Chloro-1-methyl-3-(pyridin-2-yl)-1H-pyrazol-4-yl)methyl)-N-isopentylazepan-3-amine], the values for the inhibition constant (Ki) at human σ1 receptor and on human σ2/TMEM97 receptor were 500 to 1000 nM and above 1000 nM, respectively.

As for `Cc1conc1-c1nn(C)c(Cl)c1CN1CCCCC(NCCC(C)(C)C)C1` (centres unmarked) [Example 27, 1-((5-Chloro-1-methyl-3-(4-methylisoxazol-3-yl)-1H-pyrazol-4-yl)methyl)-N-(3,3-dimethylbutyl)azepan-3-amine], the values for the Ki at human σ1 receptor and on human σ2/TMEM97 receptor were 100 to 500 nM and below 100 nM, respectively.

For `Cc1conc1-c1nn(C)c(Cl)c1CN1CCCCC(NCCC(C)C)C1` (centres unmarked) [Example 28, 1-((5-Chloro-1-methyl-3-(4-methylisoxazol-3-yl)-1H-pyrazol-4-yl)methyl)-N-isopentylazepan-3-amine], the Ki at human σ1 receptor and on human σ2/TMEM97 receptor was 100 to 500 nM in each case.
